Broadly, the Emax is the maximal effect, on the per cent scale that the assay sets. In general, EC50 refers to the midpoint of the concentration-response curve. The Ki is the equilibrium dissociation constant of an inhibitor or competing ligand from its target.

Test [1] concerns the target T1, κ-opioid receptor (Homo sapiens, UniProt P41145). Briefly: κ-opioid receptor GTPγS functional assay, U2OS cells. On the set-up: expressed in transfected cells; host or cells: U-2 OS. The following applies: U2OS cells; for EC50: read-out: GTPγS κ EC50. Format: biochemical. The protocol: (§1) Plates were incubated for 30 min at a temperature of about 25° C. with shaking.

In test [2] the target is T2, μ-opioid receptor (Homo sapiens, UniProt P35372). Briefly: cell-based. The following applies: U2OS cells; for Emax: read-out: β-Arr2 μ Emax. On the set-up: purchased Perkin Elmer, Shelton, Conn.
T2 sequence (P35372 whole entry, species assumed): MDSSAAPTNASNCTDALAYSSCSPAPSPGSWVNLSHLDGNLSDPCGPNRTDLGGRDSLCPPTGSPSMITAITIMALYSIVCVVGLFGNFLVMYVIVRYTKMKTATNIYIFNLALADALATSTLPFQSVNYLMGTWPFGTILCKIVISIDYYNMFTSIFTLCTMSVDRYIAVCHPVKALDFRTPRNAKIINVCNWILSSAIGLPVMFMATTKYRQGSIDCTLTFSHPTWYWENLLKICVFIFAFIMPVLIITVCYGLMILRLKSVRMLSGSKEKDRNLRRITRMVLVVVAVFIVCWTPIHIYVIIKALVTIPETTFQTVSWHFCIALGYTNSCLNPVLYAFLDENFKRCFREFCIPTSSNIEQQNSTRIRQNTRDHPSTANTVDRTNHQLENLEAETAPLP
Test [3] deals with T2, μ-opioid receptor. Briefly: μ-opioid receptor radioligand binding assay ([3H]-diprenorphine). Details: purchased Perkin Elmer, Shelton, Conn; host or cells: HEK-293 or CHO. Particulars: HEK-293 or CHO cells; read-out: Ki (nM) Opioid Receptor μ. The protocol:
μ-opioid Receptor Binding Assay Procedures: Radioligand dose-displacement binding assays for μ-opioid receptors used 0.3 nM [^3H]-diprenorphine (Perkin Elmer, Shelton, Conn.), with […] membrane protein/well in a final volume of 500 μl binding buffer (10 mM MgCl2, 1 mM EDTA, 5% DMSO, 50 mM HEPES, pH 7.4). Reactions were carried out in the absence or presence of increasing concentrations of unlabeled naloxone. All reactions were conducted in 96-deep well polypropylene plates for 2 hr at room temperature. […] The data were analyzed using the one-site competition curve fitting functions in GraphPad PRISM™ v. 3.0 or higher (San Diego, Calif.), or an in-house function for one-site competition curve-fitting.

The target of test [4] is T1, κ-opioid receptor. Description: κ-opioid receptor β-Arr2 activity response, U2OS cells. The following applies: U2OS cells; for EC50: read-out: β-Arr2 κ EC50. It is filed as cell-based. Details: expressed in transfected cells; host or cells: U-2 OS.
Test [5] has as its target T1, κ-opioid receptor. Description: κ-opioid receptor radioligand binding assay ([3H]-U69,593). The following applies: HEK-293 or CHO cells; read-out: Ki (nM) Opioid Receptor κ. Details: expressed in transfected cells; host or cells: HEK-293. On the procedure:
κ-opioid Receptor Binding Assay Procedures: Membranes from recombinant HEK-293 cells expressing the human κ opioid receptor (κ) (cloned in house) were prepared by lysing cells in ice cold hypotonic buffer (2.5 mM MgCl2, 50 mM HEPES, pH 7.4) (10 mL/10 cm dish) followed by homogenization with a tissue grinder/Teflon pestle. Membranes were collected by centrifugation at 30,000×g for 15 min at 4° C. and pellets were resuspended in hypotonic buffer to a final concentration of 1-3 mg/mL. Protein concentrations were determined using the BioRad protein assay reagent with bovine serum albumen as standard. Aliquots of κ receptor membranes were stored at −80° C.
Radioligand dose displacement assays used 0.4 nM [^3H]-U69,593 (GE Healthcare, Piscataway, N.J.; 40 Ci/mmole) with 15 μg membrane protein (recombinant κ opioid receptor expressed in HEK 293 cells; in-house prep) in a final volume of 200 μl binding buffer (5% DMSO, 50 mM Trizma base, pH 7.4). Non-specific binding was determined in the presence of 10 μM unlabeled naloxone or U69,593. All reactions were performed in 96-well polypropylene plates for 1 hr at a temperature of about 25° C.

The target of test [6] is T2, μ-opioid receptor. Description: biochemical. On the set-up: purchased Perkin Elmer, Shelton, Conn; host or cells: HEK-293 or CHO. Particulars: HEK-293 or CHO cells; for Emax: relative to DAMGO, read-out: GTPγS μ Emax; for EC50: read-out: GTPγS μ EC50.
Test [7] addresses T2, μ-opioid receptor. Briefly: μ-opioid receptor GTPγS functional assay, U2OS cells. The following applies: for Emax: read-out: GTPγS μ Emax.
Test [8] deals with T1, κ-opioid receptor. Briefly: κ-opioid receptor [35S]GTPγS functional assay, HEK-293 or CHO cells. It is filed as biochemical. Details: expressed in transfected cells; host or cells: HEK-293. Particulars: HEK-293 or CHO cells; for EC50: read-out: GTPγS κ EC50; for Emax: relative to U69,593. The protocol:
as §1

T1 sequence (P41145 whole entry): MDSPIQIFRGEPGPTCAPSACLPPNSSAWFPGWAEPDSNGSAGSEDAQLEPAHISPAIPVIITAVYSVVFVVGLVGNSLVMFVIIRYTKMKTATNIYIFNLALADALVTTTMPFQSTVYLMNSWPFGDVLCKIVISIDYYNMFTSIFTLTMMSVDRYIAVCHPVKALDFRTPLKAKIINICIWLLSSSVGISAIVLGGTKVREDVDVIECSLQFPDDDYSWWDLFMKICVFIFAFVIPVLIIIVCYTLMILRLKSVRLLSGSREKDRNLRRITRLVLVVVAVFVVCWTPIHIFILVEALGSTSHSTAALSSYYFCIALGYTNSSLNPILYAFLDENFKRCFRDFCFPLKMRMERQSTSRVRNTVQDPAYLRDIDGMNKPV

Turning to `COC(=O)c1ccc(CC(=O)NCC[C@]23CCN(CC4CC4)[C@H](Cc4ccc(OC)cc42)[C@@H]3C)cc1` [Compound 30, methyl 4-(2-((2-((2R,6R,11R)-3-(cyclopropylmethyl)-8-methoxy-11-methyl-2,3,4,5-tetrahydro-2,6-methano-benzo[d]azocin-6(1H)-yl)ethyl)amino)-2-oxoethyl)benzoate], the Emax was 104 ± 2.96% on κ-opioid receptor [1]; 1 ± 0.5% at μ-opioid receptor [2]; -1% at κ-opioid receptor [4]; 0% on μ-opioid receptor [6]; 51 ± 3.51% at μ-opioid receptor [7]; 83 ± 7.77% at κ-opioid receptor [8]. Besides, the concentration for a half-maximal effect (EC50) is 13.1 ± 1.48 nM on κ-opioid receptor [1], 230 ± 27.5 nM on μ-opioid receptor [7] and 259 ± 33.1 nM at κ-opioid receptor [8]. In addition, the Ki is 389 ± 124 nM at μ-opioid receptor [3] and 6.18 ± 1.72 nM at κ-opioid receptor [5].

For the compound `C[C@H]1[C@H]2Cc3ccc(O)cc3[C@]1(CCCCN[C@@H](Cc1ccccc1)C(N)=O)CCN2CC1CC1` [Compound 23, (S)-2-((4-((2R,6R,11R)-3-(cyclopropyl-methyl)-8-hydroxy-11-methyl-2,3,4,5-tetrahydro-2,6-methanobenzo[d]azocin-6(1H)-yl)butyl)amino)-3-phenyl-propanamide], the Emax on κ-opioid receptor [1] is 104 ± 4.06%; on μ-opioid receptor [2] it was -1.5%; at κ-opioid receptor [4] it was 30 ± 0.58%; at μ-opioid receptor [6] it was 1%; on μ-opioid receptor [7] it was 56 ± 3.06%; on κ-opioid receptor [8] it was 99 ± 6.35%. The EC50 at κ-opioid receptor [1] is 0.079 ± 0.01 nM; at κ-opioid receptor [4] it was 0.16 ± 0.055 nM; at μ-opioid receptor [7], 0.28 ± 0.073 nM; on κ-opioid receptor [8], 1.49 ± 0.58 nM. The Ki at μ-opioid receptor [3] worked out at 0.2 ± 0.012 nM; on κ-opioid receptor [5], 0.048 ± 0.01 nM.

In the case of `C[C@H]1[C@H]2Cc3ccc(O)cc3[C@]1(CCCC(=O)N(C)C)CCN2CC1CCC1` [Compound 28, 4-((2R,6R,11R)-3-(cyclobutylmethyl)-8-hydroxy-11-methyl-2,3,4,5-tetrahydro-2,6-methanobenzo[d]azocin-6(1H)-yl)-N,N-dimethylbutanamide], the Emax came to 104 ± 2.85% on κ-opioid receptor [1]; 3.7 ± 0.49% on μ-opioid receptor [2]; 45 ± 2.08% on κ-opioid receptor [4]; 1% at μ-opioid receptor [6]; 57.3 ± 6.57% at μ-opioid receptor [7]; 95.3 ± 1.45% at κ-opioid receptor [8]. Besides, the concentration for a half-maximal effect (EC50) at κ-opioid receptor [1] stood at 0.49 ± 0.016 nM; at μ-opioid receptor [2] (read-out: β-Arr2 μ EC50) it was 30.5 ± 4.44 nM; on κ-opioid receptor [4], 2.37 ± 0.62 nM; at μ-opioid receptor [7], 2.71 ± 0.67 nM; on κ-opioid receptor [8], 4.58 ± 0.38 nM. Also, the Ki turned out to be 1.45 ± 0.013 nM at μ-opioid receptor [3] and 0.22 ± 0.056 nM at κ-opioid receptor [5].

As for `C[C@H]1[C@H]2Cc3ccc(O)cc3[C@]1(CCNC(=O)c1ccc(C(=O)O)cc1)CCN2CC1CC1` [Compound 32, 4-((2-((2R,6R,11R)-3-(cyclopropyl-methyl)-8-hydroxy-11-methyl-2,3,4,5-tetrahydro-2,6-methanobenzo[d]azocin-6(1H)-yl)ethyl)carbamoyl)benzoic acid], the Emax on κ-opioid receptor [1] was 97.7 ± 4.67%; at μ-opioid receptor [2] it was -1%; at κ-opioid receptor [4] it was 11.3 ± 1.2%; on μ-opioid receptor [6], -1%; on μ-opioid receptor [7], 57.3 ± 5.04%; on κ-opioid receptor [8], 91.3 ± 9.94%. In addition, the EC50 is 35.7 ± 5.29 nM on κ-opioid receptor [1], 26.7 ± 10.5 nM at κ-opioid receptor [4], 2.16 ± 0.38 nM at μ-opioid receptor [7] and 144 ± 25.4 nM on κ-opioid receptor [8]. The values for the Ki on μ-opioid receptor [3] and at κ-opioid receptor [5] were 5.62 ± 1.41 nM and 35 ± 5.97 nM, respectively.

Take `COC(=O)[C@H](C)NCC[C@]12CCN(CC3CC3)[C@H](Cc3ccc(OC)cc31)[C@@H]2C` [Compound 38, methyl (2-((2R,6R,11R)-3-(cyclopropyl-methyl)-8-methoxy-11-methyl-2,3,4,5-tetrahydro-2,6-methanobenzo[d]azocin-6(1H)-yl)ethyl)-L-alaninate]: the Emax was 112 ± 2.91% on κ-opioid receptor [1]; -0.17 ± 0.93% at μ-opioid receptor [2]; 70 ± 2% at κ-opioid receptor [4]; 15.8 ± 1.03% on μ-opioid receptor [6]; 53 ± 3.51% on μ-opioid receptor [7]; 109 ± 5.46% on κ-opioid receptor [8]. Further, the EC50 stood at 2.11 ± 0.23 nM on κ-opioid receptor [1]; 141 ± 45.5 nM at κ-opioid receptor [4]; 551 ± 173 nM at μ-opioid receptor [6]; 137 ± 16.1 nM at μ-opioid receptor [7]; 287 ± 30 nM at κ-opioid receptor [8]. Moreover, the Ki stood at 94.7 ± 18.6 nM at μ-opioid receptor [3] and 0.78 ± 0.14 nM on κ-opioid receptor [5].

As for `C[C@H]1[C@H]2Cc3ccc(O)cc3[C@]1(CCNC(=O)Cc1ccc(C(=O)O)cc1)CCN2CC1CC1` [Compound 31, 4-(2-((2-((2R,6R,11R)-3-(cyclopropyl-methyl)-8-hydroxy-11-methyl-2,3,4,5-tetrahydro-2,6-methanobenzo[d]azocin-6(1H)-yl)ethyl)amino)-2-oxoethyl)-benzoic acid], the Emax on κ-opioid receptor [1] is 104 ± 3.48%; on μ-opioid receptor [2], -1.25%; on κ-opioid receptor [4], 29.7 ± 5.04%; at μ-opioid receptor [6], 0%; on μ-opioid receptor [7], 58 ± 4.73%; on κ-opioid receptor [8] it was 88.7 ± 6.89%. The EC50 came out at 18.5 ± 2.16 nM at κ-opioid receptor [1], 53.4 ± 8.62 nM on κ-opioid receptor [4], 8.77 ± 1.37 nM at μ-opioid receptor [7] and 94.2 ± 33.8 nM at κ-opioid receptor [8]. In addition, the Ki stood at 25.1 ± 7.56 nM at μ-opioid receptor [3] and 18.4 ± 3.6 nM on κ-opioid receptor [5].

Turning to `C[C@H]1[C@H]2Cc3ccc(O)cc3[C@]1(CCCC(N)=O)CCN2CC1CCC1` [Compound 29, 4-((2R,6R,11R)-3-(cyclobutylmethyl)-8-hydroxy-11-methyl-2,3,4,5-tetrahydro-2,6-methanobenzo[d]azocin-6(1H)-yl)butanamide], the Emax on κ-opioid receptor [1] was 108 ± 1.2%; on μ-opioid receptor [2], -1.5%; at κ-opioid receptor [4], 45 ± 3%; at μ-opioid receptor [6], 1%; at μ-opioid receptor [7], 41.3 ± 4.91%; on κ-opioid receptor [8], 87.7 ± 3.18%. For the same compound, the EC50 on κ-opioid receptor [1] worked out at 0.39 ± 0.016 nM; at κ-opioid receptor [4], 2.06 ± 0.32 nM; on μ-opioid receptor [7], 2.65 ± 0.89 nM; on κ-opioid receptor [8], 7.6 ± 1.67 nM. Also, the figures for the Ki at μ-opioid receptor [3] and at κ-opioid receptor [5] were 1.82 ± 0.57 nM and 0.12 ± 0.019 nM, respectively.

For `COc1ccc2c(c1)[C@]1(CCOCc3ccccc3)CCN(CC3CC3)[C@H](C2)[C@@H]1C` [Compound 45, (2R,6S,11R)-6-(2-(benzyloxy)ethyl)-3-(cyclopropylmethyl)-8-methoxy-11-methyl-1,2,3,4,5,6-hexahydro-2,6-methanobenzo[d]azocine], the Emax at κ-opioid receptor [1] was determined as 96.3 ± 5.17%; on μ-opioid receptor [2], 1.33 ± 0.33%; at κ-opioid receptor [4], 84 ± 2.08%; on μ-opioid receptor [6] it was 16.3 ± 0.88%; at μ-opioid receptor [7], 103 ± 6.47%; at κ-opioid receptor [8], 104 ± 5.03%. In addition, the EC50 on κ-opioid receptor [1] is 0.95 ± 0.14 nM; on κ-opioid receptor [4], 26.7 ± 8.55 nM; on μ-opioid receptor [6], 267 ± 20.1 nM; on μ-opioid receptor [7], 38 ± 2.09 nM; at κ-opioid receptor [8], 16.3 ± 0.74 nM. Further, the Ki on μ-opioid receptor [3] stood at 543 ± 116 nM; on κ-opioid receptor [5], 0.16 ± 0.03 nM.

Regarding `COC(=O)[C@H](Cc1ccccc1)NCCCC[C@]12CCN(CC3CC3)[C@H](Cc3ccc(O)cc31)[C@@H]2C` [Compound 27], the Emax on κ-opioid receptor [1] came to 106 ± 7.13%; on μ-opioid receptor [2], 1%; on κ-opioid receptor [4], 12.7 ± 1.86%; on μ-opioid receptor [6], 1%; at μ-opioid receptor [7] it was 22.3 ± 2.85%; at κ-opioid receptor [8] it was 61.7 ± 4.33%. The EC50 at κ-opioid receptor [1] came to 0.15 ± 0.023 nM; on κ-opioid receptor [4], 0.27 ± 0.11 nM; at μ-opioid receptor [7] it was 0.27 ± 0.058 nM; at κ-opioid receptor [8], 0.6 ± 0.12 nM. For the same compound, the Ki came to 0.071 ± 0.021 nM at μ-opioid receptor [3] and 0.054 ± 0.01 nM on κ-opioid receptor [5].

The record behind these values is US10130615B2, “Benzomorphan analogs and the use thereof” (priority 2014, dated 2018).
